Results from patent US20250059183A1, “PYRIDINE[4,3-D]PYRIMIDINE COMPOUND AS TLR7/8 AGONIST” (SHANGHAI VISONPHARMA CO., LTD., priority 2021, published 2025).

The compounds below were run against T1, human TLR8 (Homo sapiens, UniProt Q9NR97) (assay: HEK-Blue hTLR8 SEAP reporter gene agonist assay). Conditions: HEK-Blue hTLR8 cells, 16 to 22 hours incubation.
T1 construct: host or cells: HEK-Blue hTLR8 (HEK293-derived reporter cells)
T1 sequence (Q9NR97 27-1041): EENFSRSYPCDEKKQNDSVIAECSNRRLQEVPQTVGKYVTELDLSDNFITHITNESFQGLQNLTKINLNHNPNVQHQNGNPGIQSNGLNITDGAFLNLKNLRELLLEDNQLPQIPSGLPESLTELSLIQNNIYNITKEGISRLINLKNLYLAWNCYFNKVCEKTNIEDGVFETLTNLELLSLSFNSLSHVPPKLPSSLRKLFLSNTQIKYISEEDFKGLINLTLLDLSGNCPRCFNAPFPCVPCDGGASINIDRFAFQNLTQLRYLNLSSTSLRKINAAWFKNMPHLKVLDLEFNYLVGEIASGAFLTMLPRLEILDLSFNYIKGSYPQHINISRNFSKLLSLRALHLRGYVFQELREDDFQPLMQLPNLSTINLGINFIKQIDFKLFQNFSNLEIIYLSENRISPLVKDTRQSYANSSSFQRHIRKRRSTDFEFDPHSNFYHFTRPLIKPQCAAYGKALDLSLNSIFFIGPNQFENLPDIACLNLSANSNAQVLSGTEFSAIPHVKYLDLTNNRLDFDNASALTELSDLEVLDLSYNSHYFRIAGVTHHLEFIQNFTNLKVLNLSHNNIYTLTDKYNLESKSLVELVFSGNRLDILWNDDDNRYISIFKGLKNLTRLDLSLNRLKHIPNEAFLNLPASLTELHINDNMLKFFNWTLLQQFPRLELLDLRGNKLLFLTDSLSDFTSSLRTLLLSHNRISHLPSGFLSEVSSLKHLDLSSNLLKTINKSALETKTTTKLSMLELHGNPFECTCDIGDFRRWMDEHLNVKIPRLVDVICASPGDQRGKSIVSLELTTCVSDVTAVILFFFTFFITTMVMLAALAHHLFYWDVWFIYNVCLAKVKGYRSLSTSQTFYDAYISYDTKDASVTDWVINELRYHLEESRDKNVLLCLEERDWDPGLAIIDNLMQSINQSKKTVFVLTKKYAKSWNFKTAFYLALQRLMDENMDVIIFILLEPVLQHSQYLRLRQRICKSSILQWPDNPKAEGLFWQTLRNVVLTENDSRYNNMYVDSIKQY
Format: cell-based
Experimental: (§1) HEK-Blue™ cells that stably express human TLR7 or TLR8 are used to evaluate the agonistic activity of the compounds on TLR7 or TLR8, which is determined by the induction of the expression of SEAP reporter gene under the control of minimum IFN-β promoter fusion to 5×NF-κB and AP-1 binding sites. The assay is conducted as below:
(§2) HEK-Blue™ hTLR7 (Invivogen, 80,000 cells per well) or HEK-Blue™ hTLR8 (Invivogen, 60,000 cells per well) were added to the 96-well cell culture plate, followed by adding of the test compound. The final concentration of the test compound in the medium ranged from […], and was incubated for 16 to 22 hours. According to the manufacturer's instructions, the HEK-Blue assay reagent Quanti-blue (Invivogen) was used to measure SEAP levels in cell media. Optical density at 650 nm (OD650) was measured by Neo2 multifunction plate reader (Bio-tek). The half effective concentration (EC50) was calculated using GraphPad Prism.

SMILES	EC50
CCCC(C)Nc1nc(N)nc2ccn(Cc3ccc(CN4CCCC4)cc3)c(=O)c12 (stereo not shown) [Compound I-12, 2-amino-4-(pentan-2-ylamino)-6-(4-(pyrrolidin-1-ylmethyl)benzyl)pyrido[4,3-d]pyrimidin-5(6H)-one]	97 nM
CCCCNc1nc(N)nc2ccn(Cc3ccc(C(=O)N4CC5CC(C4)N5)cc3)c(=O)c12 [Compound I-19, 6-(4-(3,6-diazabicyclo[3.1.1]heptane-3-carbonyl)benzyl)-2-amino-4-(butylamino)pyri do[4,3-d]pyrimidin-5(6H)-one]	55 nM
CCC[C@@H](C)Nc1nc(N)nc2ccn(Cc3ccc(CN(CCC)CCO)cc3)c(=O)c12 [Compound I-140, (R)-2-amino-6-(4-(((2-hydroxyethyl)(propyl)amino)methyl)benzyl)-4-(pentan-2-ylamino)pyrido[4,3-d]pyrimidin-5(6H)-one]	30 nM
CCC[C@@H](C)Nc1nc(N)nc2ccn(Cc3ccc(CN4CC5(COC5)C4)nc3OC)c(=O)c12 [Compound I-188, (R)-6-((6-((2-oxa-6-azaspiro[3.3]heptan-6-yl)methyl)-2-methoxypyridin-3-yl)methyl)-2-amino-4-(pentan-2-ylamino)pyrido[4,3-d]pyrimidin-5(6H)-one]	29 nM
CCC[C@@H](CO)Nc1nc(N)nc2ccn(Cc3ccc(CN4CCN(CCN)CC4)cc3OC)c(=O)c12 [Compound I-207, (S)-2-amino-6-(4-((4-(2-aminoethyl)piperazin-1-yl)methyl)-2-methoxybenzyl)-4-((1-hydroxypentan-2-yl)amino)pyrido[4,3-d]pyrimidin-5(6H)-one]	44 nM
CCC[C@@H](CO)Nc1nc(N)nc2ccn(Cc3ccc(CN(C)CCN)cc3OC)c(=O)c12 [Compound I-208]	70 nM
CCCCCCCCCCCCCCCC(=O)OC[C@H](CCC)Nc1nc(N)nc2ccn(Cc3ccc(CN4CCN(C)CC4)cc3OC)c(=O)c12 [Compound I-222]	9 nM
CCCCOC(=O)OC[C@H](CCC)Nc1nc(N)nc2ccn(Cc3ccc(CN4CCN(C)CC4)cc3OC)c(=O)c12 [Compound I-226]	73 nM

Other lines, results leading:

EC50	SMILES
51 nM	COCCNc1nc(N)nc2ccn(Cc3ccc(CN4CCCC4)cc3)c(=O)c12 [Compound I-21, 2-amino-4-((2-methoxyethyl)amino)-6-(4-(pyrrolidin-1-ylmethyl)benzyl)pyrido[4,3-d]pyrimidin-5(6H)-one]
95 nM	CCCCNc1nc(N)nc2ccn(Cc3ccc(CN4CCCC4)c(F)c3)c(=O)c12 [Compound I-27, 2-amino-4-(butylamino)-6-(3-fluoro-4-(pyrrolidin-1-ylmethyl)benzyl)pyrido[4,3-d]pyrimidin-5(6H)-one]
45 nM	CCCCNc1nc(N)nc2ccn(Cc3ccc(CNCCO)cc3)c(=O)c12 [Compound I-34, 2-amino-4-(butylamino)-6-(4-(((2-hydroxyethyl)amino)methyl)benzyl)pyrido[4,3-d]pyrimidin-5(6H)-one]
51 nM	CCCCNc1nc(N)nc2ccn(Cc3ccc(CN(CCO)CCO)cc3)c(=O)c12 [Compound I-50, 2-amino-6-(4-((bis(2-hydroxyethyl)amino)methyl)benzyl)-4-(butylamino)pyrido[4,3-d]pyrimidin-5(6H)-one]
66 nM	CCCCNc1nc(N)nc2ccn(Cc3ccc(CN4CCCC4)cn3)c(=O)c12 [Compound I-128, 2-amino-4-(butylamino)-6-((5-(pyrrolidin-1-ylmethyl)pyridin-2-yl)methyl)pyrido[4,3-d]pyrimidin-5(6H)-one]
77 nM	CCCCNc1nc(N)nc2ccn(Cc3cnc(CN4CCCC4)cn3)c(=O)c12 [Compound I-129, 2-amino-4-(butylamino)-6-((5-(pyrrolidin-1-ylmethyl)pyrazin-2-yl)methyl)pyrido[4,3-d]pyrimidin-5(6H)-one]
18 nM	CCC[C@@H](CO)Nc1nc(N)nc2ccn(Cc3ccc(CN4CCNCC4)cc3OC)c(=O)c12 [Compound I-191, (S)-2-amino-4-((1-hydroxypentan-2-yl)amino)-6-(2-methoxy-4-(piperazin-1-ylmethyl)benzyl)pyrido[4,3-d]pyrimidin-5(6H)-one]
30 nM	CCCCCCCCCC(=O)OC[C@H](CCC)Nc1nc(N)nc2ccn(Cc3ccc(CN4CCN(C)CC4)cc3OC)c(=O)c12 [Compound I-221]

These compounds were tested against T2, human TLR7 (Homo sapiens, UniProt Q9NYK1) (assay: HEK-Blue hTLR7 SEAP reporter gene agonist assay). Conditions: HEK-Blue hTLR7 cells, 16 to 22 hours incubation.
T2 construct: host or cells: HEK-Blue hTLR7 (HEK293-derived reporter cells)
T2 sequence (Q9NYK1 27-1049): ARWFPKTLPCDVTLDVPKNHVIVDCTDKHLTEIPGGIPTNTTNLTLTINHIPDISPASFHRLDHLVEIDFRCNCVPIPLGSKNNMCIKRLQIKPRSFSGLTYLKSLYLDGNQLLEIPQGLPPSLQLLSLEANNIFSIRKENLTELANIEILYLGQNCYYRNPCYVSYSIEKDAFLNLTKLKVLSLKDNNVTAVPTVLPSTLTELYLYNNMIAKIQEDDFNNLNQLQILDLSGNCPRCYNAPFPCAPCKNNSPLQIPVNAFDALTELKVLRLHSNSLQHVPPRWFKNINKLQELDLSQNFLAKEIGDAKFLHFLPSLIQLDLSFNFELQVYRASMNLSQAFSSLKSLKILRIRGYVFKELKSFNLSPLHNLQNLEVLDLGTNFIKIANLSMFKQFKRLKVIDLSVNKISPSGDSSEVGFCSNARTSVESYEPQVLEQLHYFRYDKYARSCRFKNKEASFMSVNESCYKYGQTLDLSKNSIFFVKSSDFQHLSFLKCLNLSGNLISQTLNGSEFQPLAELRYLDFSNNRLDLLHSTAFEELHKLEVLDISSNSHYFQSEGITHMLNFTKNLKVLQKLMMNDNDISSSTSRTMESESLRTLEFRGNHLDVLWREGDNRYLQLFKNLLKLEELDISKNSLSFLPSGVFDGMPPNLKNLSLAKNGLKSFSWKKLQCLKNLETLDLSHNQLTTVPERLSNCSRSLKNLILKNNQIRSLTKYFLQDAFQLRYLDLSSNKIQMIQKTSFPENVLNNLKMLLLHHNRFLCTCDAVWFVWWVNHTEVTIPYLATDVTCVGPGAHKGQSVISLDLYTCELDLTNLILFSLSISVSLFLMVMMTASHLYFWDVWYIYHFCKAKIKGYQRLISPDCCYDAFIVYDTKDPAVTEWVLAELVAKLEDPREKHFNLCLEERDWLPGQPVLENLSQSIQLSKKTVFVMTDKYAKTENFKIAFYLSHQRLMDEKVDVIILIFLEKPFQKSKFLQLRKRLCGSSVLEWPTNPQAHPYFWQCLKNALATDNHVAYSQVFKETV
Format: cell-based
Experimental: as §1, §2

EC50	SMILES
82 nM	CCCCNc1nc(N)nc2ccn(Cc3ccc(C(=O)N4CCN(C)CC4)cc3)c(=O)c12 [Compound I-63, 2-amino-4-(butylamino)-6-(4-(4-methylpiperazine-1-carbonyl)benzyl)pyrido[4,3-d]pyrimidin-5(6H)-one]
67 nM	CCCCNc1nc(N)nc2ccn(Cc3ccc(CN4CCCC4)nc3OC)c(=O)c12 [Compound I-64, 2-amino-4-(butylamino)-6-((2-methoxy-6-(pyrrolidin-1-ylmethyl)pyridin-3-yl)methyl)pyrido[4,3-d]pyrimidin-5(6H)-one]
41 nM	CCCCNc1nc(N)nc2ccn(Cc3ccc(C(=O)N4CCN(C)CC4)cc3OC)c(=O)c12 [Compound I-73, 2-amino-4-(butylamino)-6-(2-methoxy-4-(4-methylpiperazine-1-carbonyl)benzyl)pyrido[4,3-d]pyrimidin-5(6H1)-one]
86 nM	CCCC(CCC)Nc1nc(N)nc2ccn(Cc3ccc(C(=O)N4CCN(C)CC4)cc3)c(=O)c12 [Compound I-114, 2-amino-4-(heptan-4-ylamino)-6-(4-(4-methylpiperazine-1-carbonyl)benzyl)pyrido[4,3-d]pyrimidin-5(6H)-one]
70 nM	CCCC(CCC)Nc1nc(N)nc2ccn(Cc3ccc(C(=O)N4CCN(C)CC4)cc3OC)c(=O)c12 [Compound I-133, 2-amino-4-(heptan-4-ylamino)-6-(2-methoxy-4-(4-methylpiperazine-1-carbonyl)benzyl)pyrido[4,3-d]pyrimidin-5(6H)-one]
70 nM	CCCC(CCC)Nc1nc(N)nc2ccn(Cc3ccc(C(=O)N4CCN(CCO)CC4)cc3OC)c(=O)c12 [Compound I-136, 2-amino-4-(heptan-4-ylamino)-6-(4-(4-(2-hydroxyethyl)piperazine-1-carbonyl)-2-methoxybenzyl)pyrido[4,3-d]pyrimidin-5(6H)-one]
